From patent US11701373B2, “Substituted bicyclic compounds” (BRISTOL-MYERS SQUIBB COMPANY, priority 2014, dated 2023)
Entries after “also recorded” stand apart in the source; their conditions may differ.

Key:
Lewis rats = assay: Blood Lymphocyte Reduction (BLR) Assay in rat; assay type: in vivo; conditions: for Percent reduction vs. control at 24 hr post-dose (blood lymphocytes): rat, oral, 0.1 mg/kg
Experimental: (§1) Blood Lymphocyte Reduction (BLR) Assay in Rodent:
(§2) Lewis rats or BALB/c mice were dosed orally with vehicle alone (polyethylene glycol 300, “PEG300”) or with test compounds. Compounds were dosed as a solution or suspension in the vehicle, adjusted to reflect the free amount of test article in the event that salt forms are utilized. Blood was drawn at 24 hr and blood lymphocyte counts were determined on an ADVIA 120 Hematology Analyzer (Siemens Healthcare Diagnostics). The results were measured as a reduction in the percentage of circulating lymphocytes as compared to the vehicle treated group at the time of measurement. The results represent the average results of all animals within each treatment group (n=2-4).

Male Lewis rats = assay: Rat Adjuvant Induced Arthritis Assay (AA); assay type: in vivo; conditions: prophylactic oral dosing regimen
Experimental: Rat Adjuvant Induced Arthritis Assay (AA)
The rat adjuvant-induced arthritis model is an animal model for human rheumatoid arthritis.
Male Lewis rats (150-175 g; Harlan, n=8 treatment group) were immunized at the base of the tail with 100 μl of 10 mg/ml freshly ground Mycobacterium butyricum (Difco Laboratories) in incomplete Freund's adjuvant (sigma). Animals were dosed once daily with the test article (as a solution or suspension in the vehicle) or vehicle alone (polyethylene glycol 300, “PEG300”) starting from the day of immunization. The volumes of their hind paws were measured in a water displacement plethysmometer (Ugo Basile, Italy). The baseline paw measurements were taken before onset of the disease (between day 7 to day 10). The paw measurements were then taken three times a week until the end of the study on day 20 to 21. All procedures involving animals were reviewed and approved by the Institutional Animal Care Use Committee.

C57BL/6 mice = assay: Mouse Experimental Autoimmune Encephalomyelitis Assay (EAE); assay type: in vivo; conditions: for inhibition of disease progression as measured by clinical scores: C57Bl/6 mice, prophylactic oral dosing regimen; for Clinical scores on day 22, Mean: C57BL/6 mice, prophylactic, vehicle mean 4.1
Experimental: Mouse Experimental Autoimmune Encephalomyelitis Assay (EAE)
Mice (C57BL/6 female, 6-8 weeks of age, Charles River, n=10 treatment group) were immunized subcutaneously with 150 μg MOG35-55 emulsified 1:1 with incomplete Freund's adjuvant (sigma) supplemented with 150 μg Mycobacterium tuberculosis H37RA (Difco Laboratories). 400 ng of pertussis toxin (CalBiochem) was injected intraperitoneally on the day of immunization and 2 day later. Clinical scoring and body weight were taken 3 times per week. Clinical scoring system: 0.5: partial tail weakness; 1: limp tail or waddling gait with tail tonicity; 1.5: waddling gait with partial tail weakness; 2: waddling gait with limp tail (ataxia); 2.5: ataxia with partial limb paralysis; 3: full paralysis of one limb; 3.5: full paralysis of one limbs with partial paralysis of a second limb; 4: full paralysis of two limbs; 4.5: moribund; 5: death. Mean clinical score was calculated by averaging the scores of all mice in each group. All procedures involving animals were reviewed and approved by the Institutional Animal Care Use Committee.

Female Lewis rats = assay: Rat Experimental Autoimmune Encephalomyelitis (EAE); assay type: in vivo; conditions: prophylactic oral dosing regimen
Experimental: Rat Experimental Autoimmune Encephalomyelitis (EAE)
Female Lewis rats (150-200 g; Harlan) were immunized at the base of the tail with 0.1 ml of a complete Freund's adjuvant emulsion containing 0.5 mg/mL guinea pig myelin basic protein (Genemed Synthesis) and 2 mg/mL Mycobacterium butyricum (Difco). Beginning on Day 7, rats (n=11/group) were scored individually at least 3×/wk according to the following scheme:
Average clinical scores were calculated for each treatment group on each day of assessment.

BALB/c mice = assay: Blood Lymphocyte Reduction (BLR) Assay in mouse; assay type: in vivo
Experimental: as §1, §2

Male MRL/lpr mice = assay: MRL/lpr Lupus Model (anti-dsDNA antibody titers, kidney histology); assay type: in vivo, mouse; conditions: for Anti-dsDNA antibody titers (23 weeks of age) (Mean): ratio to pooled MRL/lpr immune serum titer; for Kidney Histology (nephritis) 23 weeks of age (Mean): total score, highest possible 36
Experimental: MRL/lpr is a spontaneous model of lupus. Male MRL/lpr mice (Jackson Laboratory) at the age of 12-14 weeks were enrolled for the study (N=12). Mice were dosed p.o. daily with vehicle (18.4% (w/v) hydroxypropyl-b-cyclodextrin in 13.8 mM citric acid) or with Example 681 at 0.06, 0.3, 1.5 mg/kg. Mice were bled every other week for anti-dsDNA antibodies measured by ELISA using pooled serum from diseased MRL/lpr mice as a positive comparator in each assay. The data were expressed in arbitrary units as a ratio of the titer of the test serum to the titer of the pooled MRL/lpr immune serum.
At the end of study, one kidney was collected into 10% neutral buffered formalin and ZincTris fixatives. Fixed tissues were processed into paraffin blocks, sectioned at 3p m, and stained with H&E or PASH. Kidney sections were graded using following criteria: Glomerular Damage: 1. Mesangial matrix thickening, cell proliferation, 2. Crescent formation, cellular deposits/casts in Bowman's space, 3. Cellular infiltration, mononuclear cells in glomerular tufts, 4. Fibrosis of Bowman's capsule. Tubular damage: 1. Infiltration of mononuclear cells, 2. Severity of tubular damage, 3. Protein casts. Tubulo-interstitial damage: 1. Fibrosis, 2. Infiltration of mononuclear cells. Each subcategory was assigned a score from 0-4, with the scores for glomerular indices representing the mean from 20 glomeruli per kidney. The total score for each mouse was the sum of the above 9 subcategories, with the highest possible score=36.

COCCCCCC1CCc2cc([C@@H]3CC[C@](N)(CO)C3)ccc2C1 (single isomer, unassigned) [Example 674]
Percent reduction vs. control at 24 hr post-dose (blood lymphocytes) (Lewis rats): 30%

COCCCCCC1CCc2cc([C@@H]3CC[C@](N)(CO)C3)ccc2C1 (single isomer, unassigned) [Example 675]
Percent reduction vs. control at 24 hr post-dose (blood lymphocytes) (Lewis rats): 63%

COCCCCC[C@H]1CCc2cc([C@H]3CC[C@](N)(CO)C3)ccc2C1 [Example 672, ((1R,3S)-1-amino-3-((S)-6-(5-methoxypentyl)-5,6,7,8-tetrahydronaphthalen-2-yl)cyclopentyl)methanol]
inhibition of disease progression as measured by reduced paw swelling (Male Lewis rats): showed inhibition of disease progression

CCOCCC[C@H]1CCc2cc([C@H]3CC[C@](N)(CO)C3)ccc2C1 [Example 678, ((1R,3S)-1-amino-3-((R)-6-(3-ethoxypropyl)-5,6,7,8-tetrahydronaphthalen-2-yl)cyclopentyl)methanol]
Percent reduction vs. control at 24 hr post-dose (blood lymphocytes) (Lewis rats): 16%

CCOCCC[C@@H]1CCc2cc([C@H]3CC[C@](N)(CO)C3)ccc2C1 [Example 679, ((1R,3S)-1-amino-3-((S)-6-(3-ethoxypropyl)-5,6,7,8-tetrahydronaphthalen-2-yl)cyclopentyl)methanol]
inhibition of disease progression as measured by reduced paw swelling (Male Lewis rats): showed inhibition of disease progression
Percent reduction vs. control at 24 hr post-dose (blood lymphocytes) (Lewis rats): 65%
inhibition of disease progression as measured by clinical scores (C57BL/6 mice): showed inhibition of disease progression; also recorded: inhibit disease progression
inhibition of disease progression as measured by reduced clinical scores (Female Lewis rats): showed inhibition of disease progression

COc1ccccc1CC[C@H]1CCc2cc([C@H]3CC[C@](N)(CO)C3)ccc2C1 [Example 682, ((1R,3S)-1-amino-3-((R)-6-(2-methoxyphenethyl)-5,6,7,8-tetrahydronaphthalen-2-yl)cyclopentyl)methanol]
Percent reduction vs. control at 24 hr post-dose (blood lymphocytes) (Lewis rats): 17%

((1R,3S)-1-amino-3-((S)-6-(2-methoxyphenethyl)-5,6,7,8-tetrahydronaphthalen-2-yl)cyclopentyl)methanol [Example 681]
Percent reduction vs. control at 24 hr post-dose (blood lymphocytes) (Lewis rats): 53%
lymphocyte reduction (Lewis rats; rodent BLR assay, 0.1 mg/kg oral, 24 hours post-dose, versus vehicle group): 53%
lymphocyte reduction (BALB/c mice; mice, 0.5 mg/kg oral, 24 hours post dose): 85%
Mouse Blood Lymphocyte Reduction Assay at 24 hr post-dose Percent reduction vs. control (BALB/c mice; mouse, oral, 0.5 mg/kg, 24 hr post-dose): 85%
Clinical scores on day 22, Mean (C57BL/6 mice; 0.1 mg/kg oral): 3.1
Clinical scores on day 22, Mean (C57BL/6 mice; 0.5 mg/kg oral): 1.1
Clinical scores on day 22, Mean (C57BL/6 mice; 2 mg/kg oral): 0.8
inhibition of disease progression as measured by clinical scores (C57BL/6 mice): showed inhibition of disease progression; also recorded: inhibit disease progression
Anti-dsDNA antibody titers (23 weeks of age) (Mean) (Male MRL/lpr mice; 0.06 mg/kg p.o. daily): 1.861 arbitrary units
Kidney Histology (nephritis) 23 weeks of age (Mean) (Male MRL/lpr mice; 0.06 mg/kg p.o. daily): 10.13
Anti-dsDNA antibody titers (23 weeks of age) (Mean) (Male MRL/lpr mice; 0.3 mg/kg p.o. daily): 0.978 arbitrary units
Kidney Histology (nephritis) 23 weeks of age (Mean) (Male MRL/lpr mice; 0.3 mg/kg p.o. daily): 10.00
Anti-dsDNA antibody titers (23 weeks of age) (Mean) (Male MRL/lpr mice; 1.5 mg/kg p.o. daily): 1.023 arbitrary units
Kidney Histology (nephritis) 23 weeks of age (Mean) (Male MRL/lpr mice; 1.5 mg/kg p.o. daily): 12.63
inhibition of disease progression as measured by anti-dsDNA titers (Male MRL/lpr mice; p.o. daily): showed inhibition of disease progression
inhibition of disease progression as measured by kidney histology (Male MRL/lpr mice; p.o. daily): showed inhibition of disease progression
